The target of assay [1] is T1, TxA2 Synthase (Rattus norvegicus, UniProt P49430).
T1 construct: TxB2 generated in whole blood during clotting; from tissue; host or cells: rat whole blood, clotting (RRM rats)
T1 sequence (P49430 1-533): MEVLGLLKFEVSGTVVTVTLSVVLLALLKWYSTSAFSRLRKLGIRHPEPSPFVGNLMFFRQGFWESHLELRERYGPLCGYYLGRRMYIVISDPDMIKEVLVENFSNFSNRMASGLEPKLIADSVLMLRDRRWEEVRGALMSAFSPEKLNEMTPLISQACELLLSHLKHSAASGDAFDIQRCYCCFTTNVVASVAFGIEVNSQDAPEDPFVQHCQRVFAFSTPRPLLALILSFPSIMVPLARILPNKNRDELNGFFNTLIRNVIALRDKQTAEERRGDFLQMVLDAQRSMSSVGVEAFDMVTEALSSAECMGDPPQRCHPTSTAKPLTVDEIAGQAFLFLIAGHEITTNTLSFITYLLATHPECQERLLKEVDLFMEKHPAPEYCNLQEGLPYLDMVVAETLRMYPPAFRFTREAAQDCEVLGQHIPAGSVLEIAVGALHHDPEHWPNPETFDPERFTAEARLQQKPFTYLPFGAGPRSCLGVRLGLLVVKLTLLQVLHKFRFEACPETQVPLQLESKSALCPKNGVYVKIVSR
Put plainly: TxA2 Synthase activity in vitro: TxB2 generated in whole blood during clotting (RRM rats). Format: cell-based. The conditions noted are these: for inhibitory activity on TxA2 synthesis (in words): in vitro, RRM rat whole blood / glomeruli; for IC50: whole blood of RRM rats, clotting 1 h at 37° C., n = 8, limits for p = 0.95, read-out: In vitro effects on T × B2 production, IC50, Whole Blood. Here is the method: (§1) The compounds of formula (I) were for example tested for their ability to inhibit TxA2 Synthase activity (as reflected by TxB2 generated in whole blood during clotting or in isolated glomeruli) in vitro in the rat.
(§2) The in vitro experiments were carried out as follows: The effect of the compounds on TxA2 synthesis was evaluated in serum and in glomeruli isolated from kidney cortex of reduced renal mass rats (RRM). Ablation of >70% of renal mass in the rat results in hypertension, proteinuria and glomerular sclerosis of the remnant kidney. Rats with a remnant kidney have increased excretion of thromboxane in the urine when compared with normal rats (Purkerson et al., Proc. Natl. Acad. Sci. USA 82, 193, 1985).
Blood was withdrawn from the abdominal aorta of the animals under light ether anesthesia.
Samples were then allowed to clot for 1 h at 37° C., centrifuged at 3000 rpm for 10 min, serum collected and stored at -20° C. until assayed. TxB2 levels were determined by RIA according to previously described procedures [Patrono et al.-Thromb. Res. 17, 3/4, 317, 1980] using highly specific antibody.

In assay [2] the target is T2, TxA2 receptor (washed human platelets) (Homo sapiens, UniProt P21731).
T2 construct: endogenous in cells; host or cells: washed platelets of healthy human volunteers
T2 sequence (P21731 1-343): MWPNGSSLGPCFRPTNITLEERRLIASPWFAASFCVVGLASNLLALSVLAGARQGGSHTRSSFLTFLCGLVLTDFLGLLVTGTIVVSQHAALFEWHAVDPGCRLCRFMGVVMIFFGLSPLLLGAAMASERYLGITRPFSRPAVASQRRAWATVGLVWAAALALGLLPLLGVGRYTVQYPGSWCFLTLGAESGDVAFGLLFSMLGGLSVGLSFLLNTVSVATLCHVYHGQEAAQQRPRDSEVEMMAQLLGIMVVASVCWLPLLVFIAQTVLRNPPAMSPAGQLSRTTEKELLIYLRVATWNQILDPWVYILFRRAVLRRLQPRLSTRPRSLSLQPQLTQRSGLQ
Put plainly: TxA2 antagonism, [^3H]-SQ 29,548 binding displacement in washed human platelets. Here is the method: Moreover the compounds of the invention were tested for TxA2 antagonism in a binding assay in washed human platelets, using as radiolabelled ligand [^3 H]-SQ 29,548.
The experiments were carried out as follows: Blood from healthy volunteers of both sexes who had no taken any medication for at least 10 days is collected into one-tenth volume of acid citrate dextrose containing indomethacin (28 μM). Platelet rich plasma (PRP), obtained by centrifugation of the blood at 200×g for 20 min, is washed twice (1000×g for 10 min). The platelets are then resuspended in Tyrode-Hepes buffer (pH 7.4) to a final concentration of […] and incubated for 0-60 min at 25° with [^3 H]-SQ 29,548 (5 nM). For displacement experiments various concentrations (10^-9 -10^-4 M) of competing ligands were added and incubated for 30 min at 25° C.
After the incubation, 4 ml of ice-cold TRIS-HCL buffer (10 mM, pH 7.4) was added to each tube and the reaction mixture was immediately filtered by suction through a Whatman […] glass filter disc which was washed 2 times with ice-cold TRIS-HCl (4 ml) and counted for radioactivity by a Packard-β-counter.

For assay [3], the target named is T1, TxA2 Synthase. The note with it: no test data given; cited from earlier work.
The target in assay [4] is T1, TxA2 Synthase. Kind of assay: TxA2 Synthase activity in vitro: TxB2 production in isolated glomeruli (RRM rats). The note with it: isolated glomeruli of RRM rats, 1 h at 37° C., n = 6; limits for p = 0.95; read-out: In vitro effects on T × B2 production, IC50, Glomeruli. Format: cell-based. Here is the method:
as §1, §2
The isolated glomeruli of 4 rats were pooled, suspended in modified Krebs buffer (pH 7.3) and divided into portions of 1 ml each containing a concentration of the test compounds or of the reference compounds.

Results on five molecules are retold here after patent US5280033A, “Substituted 1-(alkoxy-iminoalkyl) imidazole derivatives and their use in treating disease related to an enhancement of thromboxane-A2 syntheis” (Farmitalia Carlo Erba S RL, priority 1990, dated 1994).

As a reminder, the IC50 is the point on the concentration scale where inhibition reaches its midpoint.

Entries after “also recorded” stand apart in the source; their conditions may differ.

Take `O=C(O)CCCCO/N=C(/c1ccccc1)C(Cc1ccccc1)n1ccnc1` (racemic) [FCE 27108, (±) (Z)-5-[1-phenyl-2-(imidazol-1-yl)-2-benzylethylidene]aminoxypentanoic acid]: in assay [1], the “inhibitory activity on TxA2 synthesis (in words)” value is “marked inhibitory activity on TxA2 synthesis significantly more potent than that of reference compounds Dazoxiben and ASA”; the IC50 stood at 23 nM.
Turning to `O=C(O)CCCCO/N=C(\c1ccccc1)C(Cc1ccccc1)n1ccnc1` (racemic) [FCE 27109, (±) (E)-5-[1-phenyl-2-(imidazol-1-yl)-2-benzylethylidene]aminoxypentanoic acid], the IC50 in assay [2] ([^3H]-SQ 29,548 5 nM, 30 min at 25° C.) turned out to be 190 nM. The “affinity for the receptor (in words)” value in assay [2] ([^3H]-SQ 29,548 binding) is recorded as “good affinity for the receptor better than that showed by the known compound Sulotroban (BM 13177)”. In assay [1], the “inhibitory activity on TxA2 synthesis (in words)” value was “marked inhibitory activity on TxA2 synthesis significantly more potent than that of reference compounds Dazoxiben and ASA; also recorded: active as TxA2 synthase inhibitor”; the IC50 was 48.3 nM.
Turning to `CC(=O)Oc1ccccc1C(=O)O` [ASA, Acetylsalicylic acid, reference compound], the IC50 in assay [1] is 42000 nM.
With `O=C(O)COc1ccc(CCNS(=O)(=O)c2ccccc2)cc1` [BM 13177, Sulotroban], in assay [3], the “TxA2 synthase inhibitory activity of known compound (in words)” value is reported as “devoid of TxA2 synthase inhibitory activity”.
In the case of `O=C(O)CCCCO/N=C(\Cn1ccnc1)C1CCCCC1` [FCE 26398, (Z)-5-[1-cyclohexyl-2-(imidazol-1-yl)-ethylidene]aminoxypentanoic acid], the values for the IC50 in assay [4] and in assay [1] were 36 nM and 19 nM, respectively. Moreover, the “inhibitory activity on TxA2 synthesis (in words)” value in assay [1] was “marked inhibitory activity on TxA2 synthesis significantly more potent than that of reference compounds Dazoxiben and ASA”.
